Data taken from ChEMBL document CHEMBL1201862, “PubChem BioAssay data set” (2004).
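In this assay, cells in 96-well plates receive the compound at five concentrations for 48 hours. Endpoints are linearly interpolated between the surrounding concentrations. GI50 marks 50% less growth.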 Activity calls are given as the source filed them. Rule as the data show it: active = GI50 up to about 1.1 µM and inactive = higher.

Experiments:
Test in all cases: NCI-60 cell line screen, 48 h
HOP-92 = system: HOP-92
BT-549 = system: BT-549
MDA-N = system: MDA-N
MOLT-4 = system: MOLT-4
NCI-H226 = system: NCI-H226
HT-29 = system: HT-29
786-0 = system: 786-0
RPMI-8226 = system: RPMI-8226
DU-145 = system: DU-145
PC-3 = system: PC-3
MCF7 = system: MCF7
SK-MEL-2 = system: SK-MEL-2
SN12C = system: SN12C
SK-MEL-28 = system: SK-MEL-28
SF-268 = system: SF-268
HCT-116 = system: HCT-116
CCRF-CEM = system: CCRF-CEM
SNB-75 = system: SNB-75
SR = system: SR
OVCAR-4 = system: OVCAR-4
SK-OV-3 = system: SK-OV-3
A549 = system: A549
ACHN = system: ACHN
SF-539 = system: SF-539
U-251 = system: U-251
K562 = system: K562
UACC-62 = system: UACC-62
HOP-62 = system: HOP-62
Malme-3M = system: Malme-3M
NCI-H522 = system: NCI-H522
LOX IMVI = system: LOX IMVI
SNB-19 = system: SNB-19
MDA-MB-231 = system: MDA-MB-231
SK-MEL-5 = system: SK-MEL-5
UACC-257 = system: UACC-257
OVCAR-3 = system: OVCAR-3
NCI-H460 = system: NCI-H460
A498 = system: A498
SF-295 = system: SF-295
HL-60 = system: HL-60
EKVX = system: EKVX
SW-620 = system: SW-620
RXF 393 = system: RXF 393
OVCAR-8 = system: OVCAR-8
TK-10 = system: TK-10
NCI/ADR-RES = system: NCI/ADR-RES
OVCAR-5 = system: OVCAR-5
NCI-H23 = system: NCI-H23
COLO 205 = system: COLO 205
Hs-578T = system: Hs-578T
HCT-15 = system: HCT-15
T47D = system: T47D
IGROV-1 = system: IGROV-1
M14 = system: M14
MDA-MB-435 = system: MDA-MB-435
CAKI-1 = system: CAKI-1
HCC 2998 = system: HCC 2998
UO-31 = system: UO-31
KM12 = system: KM12

O=C(CC(C(=O)O)N1CCOCC1)c1ccccc1 (stereo unspecified)
GI50 (HOP-92): 20.4 µM (inactive)
GI50 (BT-549): 18.6 µM (inactive)
GI50 (MDA-N): 17.8 µM (inactive)
GI50 (MOLT-4): 15.2 µM (inactive)
GI50 (NCI-H226): > 100 µM (inactive)
GI50 (HT-29): 17.1 µM (inactive)
GI50 (786-0): 15.1 µM (inactive)
GI50 (RPMI-8226): 12.7 µM (inactive)
GI50 (DU-145): 23.6 µM (inactive)
GI50 (PC-3): 16.5 µM (inactive)
GI50 (MCF7): 15.7 µM (inactive)
GI50 (SK-MEL-2): 19.1 µM (inactive)
GI50 (SN12C): 17.8 µM (inactive)
GI50 (SK-MEL-28): 19.5 µM (inactive)
GI50 (SF-268): 19.5 µM (inactive)
GI50 (HCT-116): 14 µM (inactive)
GI50 (CCRF-CEM): 3.37 µM (inactive)
GI50 (SNB-75): 31 µM (inactive)
GI50 (SR): 16.4 µM (inactive)
GI50 (OVCAR-4): 23 µM (inactive)
GI50 (SK-OV-3): 37 µM (inactive)
GI50 (A549): 57.8 µM (inactive)
GI50 (ACHN): 16 µM (inactive)
GI50 (SF-539): 22.6 µM (inactive)
GI50 (U-251): 16.7 µM (inactive)
GI50 (K562): 18.8 µM (inactive)
GI50 (UACC-62): 14.6 µM (inactive)
GI50 (HOP-62): 27.4 µM (inactive)
GI50 (Malme-3M): 18.8 µM (inactive)
GI50 (NCI-H522): > 100 µM (inactive)
GI50 (LOX IMVI): 17.5 µM (inactive)
GI50 (SNB-19): 21 µM (inactive)
GI50 (MDA-MB-231): 15.3 µM (inactive)
GI50 (SK-MEL-5): 19.6 µM (inactive)
GI50 (UACC-257): 13.4 µM (inactive)
GI50 (OVCAR-3): 20 µM (inactive)
GI50 (NCI-H460): 19.5 µM (inactive)
GI50 (A498): 25.1 µM (inactive)
GI50 (SF-295): 41.2 µM (inactive)
GI50 (HL-60): 20.6 µM (inactive)
GI50 (EKVX): 18.4 µM (inactive)
GI50 (SW-620): 19.8 µM (inactive)
GI50 (RXF 393): 18.4 µM (inactive)
GI50 (OVCAR-8): 30.8 µM (inactive)
GI50 (TK-10): 15.9 µM (inactive)
GI50 (NCI/ADR-RES): > 100 µM (inactive)
GI50 (OVCAR-5): 22.3 µM (inactive)
GI50 (NCI-H23): 20.7 µM (inactive)
GI50 (COLO 205): 21.1 µM (inactive)
GI50 (Hs-578T): 34.1 µM (inactive)
GI50 (HCT-15): 19.5 µM
GI50 (T47D): > 100 µM (inactive)
GI50 (IGROV-1): 26.2 µM (inactive)
GI50 (M14): 14.6 µM (inactive)

COC(=O)[C@H](Cc1c[nH]c2ccccc12)NC(=O)c1ccc(CNC(=O)/C(C)=C/c2ccccc2)cc1
GI50 (HOP-92): 16 µM (inactive)
GI50 (BT-549): 28.1 µM (inactive)
GI50 (MDA-N): 19.8 µM (inactive)
GI50 (MOLT-4): 21.5 µM (inactive)
GI50 (NCI-H226): > 100 µM (inactive)
GI50 (HT-29): > 100 µM (inactive)
GI50 (MDA-MB-435): 36.4 µM (inactive)
GI50 (786-0): > 100 µM (inactive)
GI50 (CAKI-1): > 100 µM (inactive)
GI50 (RPMI-8226): 46 µM (inactive)
GI50 (DU-145): 32.5 µM (inactive)
GI50 (PC-3): 20.7 µM (inactive)
GI50 (MCF7): 29.2 µM (inactive)
GI50 (SK-MEL-2): 12.4 µM (inactive)
GI50 (SN12C): > 100 µM (inactive)
GI50 (SK-MEL-28): 18.2 µM (inactive)
GI50 (SF-268): 97.5 µM (inactive)
GI50 (HCT-116): 71.4 µM (inactive)
GI50 (CCRF-CEM): 41 µM (inactive)
GI50 (SNB-75): 0.497 µM (active)
GI50 (SR): 28.6 µM (inactive)
GI50 (OVCAR-4): 30.3 µM (inactive)
GI50 (SK-OV-3): > 100 µM (inactive)
GI50 (A549): 75.7 µM (inactive)
GI50 (ACHN): 52.5 µM (inactive)
GI50 (SF-539): > 100 µM (inactive)
GI50 (HCC 2998): 15.6 µM (inactive)
GI50 (U-251): 80 µM (inactive)
GI50 (UO-31): 63.7 µM (inactive)
GI50 (K562): > 100 µM (inactive)
GI50 (UACC-62): 20.9 µM (inactive)
GI50 (HOP-62): 92.5 µM (inactive)
GI50 (Malme-3M): 13 µM (inactive)
GI50 (NCI-H522): 14.6 µM (inactive)
GI50 (LOX IMVI): 44.3 µM (inactive)
GI50 (SNB-19): > 100 µM (inactive)
GI50 (MDA-MB-231): 17.8 µM (inactive)
GI50 (SK-MEL-5): 17.4 µM (inactive)
GI50 (UACC-257): 18 µM (inactive)
GI50 (OVCAR-3): 28.6 µM (inactive)
GI50 (NCI-H460): 27.9 µM (inactive)
GI50 (A498): 22.6 µM (inactive)
GI50 (SF-295): 60.1 µM (inactive)
GI50 (EKVX): 57.3 µM (inactive)
GI50 (SW-620): > 100 µM (inactive)
GI50 (RXF 393): < 0.01 µM (active)
GI50 (OVCAR-8): 66.7 µM (inactive)
GI50 (TK-10): 29.6 µM (inactive)
GI50 (NCI/ADR-RES): 52.8 µM (inactive)
GI50 (OVCAR-5): > 100 µM (inactive)
GI50 (NCI-H23): 25.7 µM (inactive)
GI50 (KM12): 87.7 µM (inactive)
GI50 (COLO 205): 22.8 µM (inactive)
GI50 (HCT-15): 48.1 µM
GI50 (T47D): 3.7 µM (inactive)
GI50 (IGROV-1): 32.1 µM (inactive)
GI50 (M14): 15.9 µM (inactive)
